Experimental data as given in EPA's ToxRefDB 2.

Experiments:
[1] = test system: rat; conditions: Sub-acute repeat dose toxicity; Oral; Gavage/Intubation; dose end: 4 day; group: systemic; systemic / clinical chemistry / [other] / [other] + systemic / clinical chemistry / 5' nucleotidase / 5' nucleotidase + systemic / clinical …
[2] = test system: rat; conditions: Sub-acute repeat dose toxicity, Oral, Gavage/Intubation, dose end: 8 day, group: systemic
[3] = test system: dog; conditions: Subchronic oral toxicity in nonrodent, beagle, Gavage/Intubation, dose end: 93 day
[4] = test system: rat; conditions: Subchronic oral toxicity in rodents, sprague dawley, Gavage/Intubation, dose end: 91 day, group: systemic
[5] = test system: rat; conditions: Sub-acute repeat dose toxicity; Oral; Gavage/Intubation; dose end: 5 day; group: systemic; systemic / in life observation / food consumption / food consumption
[6] = test system: rat; conditions: Sub-acute repeat dose toxicity, Oral, Gavage/Intubation, dose end: 5 day, group: systemic
[7] = test system: rat; conditions: Sub-acute repeat dose toxicity, Oral, Gavage/Intubation, dose end: 14 day, group: systemic
[8] = test system: rat; conditions: Sub-acute repeat dose toxicity, Oral, Gavage/Intubation, dose end: 12 day, group: systemic
[9] = test system: rat; conditions: Combined chronic toxicity/carcinogenicity; fischer; Oral; Gavage/Intubation; dose end: 2 year; group: systemic; systemic / in life observation / body weight / body weight
[10] = test system: mouse; conditions: Subchronic oral toxicity in rodents, b6c3f1, Gavage/Intubation, dose end: 13 week, group: systemic
[11] = test system: rat; conditions: Subchronic oral toxicity in rodents, fischer, Gavage/Intubation, dose end: 13 week, group: systemic
[12] = test system: mouse; conditions: Combined chronic toxicity/carcinogenicity, b6c3f1, Oral, Gavage/Intubation, dose end: 2 year, group: systemic
[13] = test system: rat; conditions: Combined chronic toxicity/carcinogenicity, fischer, Oral, Gavage/Intubation, dose end: 103 week, group: systemic
[14] = test system: mouse; conditions: Subchronic oral toxicity in rodents, b6c3f1, Gavage/Intubation, dose end: 13 week, group: systemic, systemic / in life observation / clinical signs / fur (altered appearance) + systemic / in life observation / clinical signs / reduced …
[15] = test system: rat; conditions: Subchronic oral toxicity in rodents, fischer, Gavage/Intubation, dose end: 13 week, group: systemic; remark: listed apart in the source
[16] = test system: mouse; conditions: Combined chronic toxicity/carcinogenicity, b6c3f1, Oral, Gavage/Intubation, dose end: 103 week, group: systemic
[17] = test system: mouse; conditions: Carcinogenicity; b6c3f1; Oral; Feed; dose end: 108 week; group: systemic; systemic / in life observation / body weight / body weight
[18] = test system: rat; conditions: Carcinogenicity; fischer; Oral; Feed; dose end: 107 week; group: systemic; systemic / in life observation / body weight / body weight
[19] = test system: rat; conditions: Subchronic oral toxicity in rodents, fischer, Feed, dose end: 7 week, group: systemic, systemic / in life observation / body weight / body weight
[20] = test system: mouse; conditions: Subchronic oral toxicity in rodents, b6c3f1, Feed, dose end: 7 week, group: systemic, systemic / in life observation / body weight / body weight
[21] = test system: mouse; conditions: Carcinogenicity; other; Oral; Feed; dose end: 24 month; group: systemic; systemic / hematology / anemia / anemia - nos + systemic / organ weight / liver / absolute + systemic / organ weight / liver / relative to …
[22] = test system: rat; conditions: Subchronic oral toxicity in rodents, other, Feed, dose end: 6 month, group: systemic
[23] = test system: rat; conditions: Combined chronic toxicity/carcinogenicity; wistar; Oral; Feed; dose end: 24 month; group: systemic; systemic / organ weight / spleen / absolute + systemic / organ weight / spleen / relative to body weight + systemic / pathology microscopic…
[24] = test system: rat; conditions: Multigenerational reproductive toxicity study, sprague dawley, Oral, Feed, dose end: 2 generation
[25] = test system: rat; conditions: Other (NonGuideline or Guideline Not Listed), sprague dawley, Oral, Gavage/Intubation, dose end: 7 day, group: cannot be grouped
[26] = test system: rat; conditions: Sub-acute repeat dose toxicity; sprague dawley; Oral; Gavage/Intubation; dose end: 6 day; group: systemic; systemic / clinical chemistry / alanine aminotransferase (alt/sgpt) / alanine aminotransferase (alt/sgpt) + systemic / clinical chemistry / …
[27] = test system: rat; conditions: Other (NonGuideline or Guideline Not Listed); sprague dawley; Oral; Gavage/Intubation; dose end: 5 day; group: cannot be grouped; systemic / clinical chemistry / alanine aminotransferase (alt/sgpt) / alanine aminotransferase (alt/sgpt) + systemic / clinical chemistry / …
[28] = test system: rat; conditions: Sub-acute repeat dose toxicity; sprague dawley; Oral; Gavage/Intubation; dose end: 16 day; group: systemic; systemic / organ weight / liver / absolute + systemic / organ weight / liver / relative to body weight + systemic / organ weight / liver / …
[29] = test system: primate; conditions: Other (NonGuideline or Guideline Not Listed); rhesus; Oral; Gavage/Intubation; dose end: 8 day; group: cannot be grouped; systemic / clinical chemistry / alanine aminotransferase (alt/sgpt) / alanine aminotransferase (alt/sgpt) + systemic / clinical chemistry / …
[30] = systemic / clinical chemistry / albumin / albumin + systemic / clinical chemistry / globulins / globulins + systemic / clinical chemistry / …
[31] = systemic / hematology / neutrophils / neutrophils
[32] = group: maternal, reproductive / reproductive performance / estrous cycle / absent corpora lutea
[33] = group: systemic, systemic / organ weight / testes / absolute + systemic / pathology microscopic / testes / degeneration
[34] = group: systemic, systemic / organ weight / testes / absolute + systemic / pathology microscopic / testes / degeneration + systemic / in life observation / …
[35] = systemic / in life observation / clinical signs / abnormal feces + systemic / in life observation / clinical signs / fur (altered appearance…
[36] = systemic / in life observation / mortality / mortality + systemic / organ weight / testes / absolute + systemic / pathology microscopic / …
[37] = systemic / hematology / neutrophils / neutrophils + systemic / pathology microscopic / mesentery / inflammation + systemic / pathology …
[38] = systemic / clinical chemistry / 5' nucleotidase / 5' nucleotidase + systemic / clinical chemistry / glucose / glucose + systemic / clinical …
[39] = systemic / clinical chemistry / potassium / potassium
[40] = systemic / hematology / neutrophils / neutrophils + systemic / pathology microscopic / intestine small / inflammation + systemic / pathology…
[41] = systemic / pathology microscopic / kidney / nephropathy
[42] = systemic / in life observation / body weight / body weight
[43] = systemic / in life observation / body weight / body weight + systemic / in life observation / clinical signs / alopecia + systemic / in life…
[44] = systemic / in life observation / body weight / body weight + systemic / pathology microscopic / kidney / nephropathy
[45] = systemic / in life observation / body weight / body weight + systemic / pathology microscopic / kidney / nephropathy + systemic / pathology …
[46] = systemic / pathology microscopic / kidney / hyperplasia + systemic / pathology microscopic / kidney / mineralization
[47] = systemic / pathology microscopic / kidney / hyperplasia + systemic / pathology microscopic / kidney / mineralization + systemic / pathology …
[48] = systemic / in life observation / body weight / body weight + systemic / in life observation / clinical signs / fur (altered appearance) + …
[49] = systemic / pathology microscopic / kidney / casts + systemic / pathology microscopic / kidney / regeneration
[50] = systemic / pathology microscopic / liver / cytomegaly + systemic / pathology microscopic / liver / multinucleated
[51] = systemic / pathology gross / urinary bladder / lesion(s) (nos) + systemic / pathology microscopic / blood vessel / [other] + systemic / …
[52] = group: offspring, systemic / in life observation / body weight / offspring (pup) weight
[53] = group: parental, systemic / in life observation / body weight / body weight + systemic / in life observation / body weight / body weight gain + systemic / in…
[54] = systemic / clinical chemistry / alkaline phosphatase (alp/alk) / alkaline phosphatase (alp/alk) + systemic / clinical chemistry / glucose / …
[55] = systemic / clinical chemistry / glucose / glucose + systemic / pathology gross / liver / discolored + systemic / pathology microscopic / …

## CCc1nn(C2CCCCC2)c2cc(C3(C#N)CCC(C(=O)O)CC3)ccc12 (centres undefined)
[1]
  LEL: 30 mg/kg/day
  LOAEL: > 30 mg/kg/day
  NEL: < 30 mg/kg/day
  NOAEL: ≥ 30 mg/kg/day
[2]; [30]
  LOAEL: > 30 mg/kg/day
  NOAEL: ≥ 30 mg/kg/day
[2]; [31]
  LEL: 15 mg/kg/day
  NEL: < 15 mg/kg/day
[3]; [32]
  LEL: 1 mg/kg/day
  LOAEL: > 10 mg/kg/day
  NEL: < 1 mg/kg/day
  NOAEL: ≥ 10 mg/kg/day
[3]; [33]
  LEL: 1 mg/kg/day
  NEL: < 1 mg/kg/day
[3]; [34]
  LOAEL: > 10 mg/kg/day
  NOAEL: ≥ 10 mg/kg/day
[4]; [35]
  LEL: 1 mg/kg/day
  NEL: < 1 mg/kg/day
[4]; [36]
  LOAEL: > 15 mg/kg/day
  NOAEL: ≥ 15 mg/kg/day
[5]
  LEL: 1 mg/kg/day
  LOAEL: > 10 mg/kg/day
  NEL: < 1 mg/kg/day
  NOAEL: ≥ 10 mg/kg/day
[6]; [30]
  LOAEL: > 30 mg/kg/day
  NOAEL: ≥ 30 mg/kg/day
[6]; [37]
  LEL: 15 mg/kg/day
  NEL: < 15 mg/kg/day
[7]; [38]
  LOAEL: > 60 mg/kg/day
  NOAEL: ≥ 60 mg/kg/day
[7]; [39]
  LEL: 3 mg/kg/day
  NEL: < 3 mg/kg/day
[8]; [30]
  LOAEL: > 30 mg/kg/day
  NOAEL: ≥ 30 mg/kg/day
[8]; [40]
  LEL: 15 mg/kg/day
  NEL: < 15 mg/kg/day

## CCCCCCc1ccc(O)cc1O [4-Hexylresorcinol]
[9]
  LEL: 125 mg/kg/day
  LOAEL: 125 mg/kg/day
  NEL: 62.5 mg/kg/day
  NOAEL: 62.5 mg/kg/day
[10]; [41]
  LEL: 125 mg/kg/day
  LOAEL: 250 mg/kg/day
[10]; systemic / pathology microscopic / kidney / nephropathy + systemic / in life observation / body weight / body weight + systemic / in life …
  NEL: 62.5 mg/kg/day
[10]; systemic / pathology microscopic / kidney / nephropathy + systemic / in life observation / mortality / mortality
  NOAEL: 125 mg/kg/day
[11]; [42]
  LEL: 125 mg/kg/day
  LOAEL: 125 mg/kg/day
[11]; [43]
  NEL: 62.5 mg/kg/day
  NOAEL: 62.5 mg/kg/day
[12]; [44]
  LOAEL: 62.5 mg/kg/day
  NOAEL: < 62.5 mg/kg/day
[12]; [45]
  LEL: 62.5 mg/kg/day
  NEL: < 62.5 mg/kg/day

## C=C(C)[C@H]1CC=C(C)CC1 [D-Limonene]
[13]; [46]
  LOAEL: 75 mg/kg/day
  NOAEL: < 75 mg/kg/day
[13]; [47]
  LEL: 75 mg/kg/day
  NEL: < 75 mg/kg/day
[14]
  LEL: 1000 mg/kg/day
  LOAEL: > 2000 mg/kg/day
  NEL: 500 mg/kg/day
  NOAEL: ≥ 2000 mg/kg/day
[15]; [48]
  LOAEL: > 2400 mg/kg/day
  NOAEL: ≥ 2400 mg/kg/day
[15]; [49]
  LEL: 150 mg/kg/day
  NEL: < 150 mg/kg/day
[16]; [42]
  LOAEL: 1000 mg/kg/day
  NOAEL: 500 mg/kg/day
[16]; [50]
  LEL: 500 mg/kg/day
  NEL: 250 mg/kg/day

## CCN(CC)C(=S)SSC(=S)N(CC)CC [Disulfiram]
[17]
  LEL: 15 mg/kg/day
  LOAEL: 15 mg/kg/day
  NEL: < 15 mg/kg/day
  NOAEL: < 15 mg/kg/day
[18]
  LEL: 15 mg/kg/day
  LOAEL: > 30 mg/kg/day
  NEL: < 15 mg/kg/day
  NOAEL: ≥ 30 mg/kg/day
[19]
  LEL: 75 mg/kg/day
  LOAEL: 75 mg/kg/day
  NEL: < 75 mg/kg/day
  NOAEL: < 75 mg/kg/day
[20]
  LEL: 150 mg/kg/day
  LOAEL: 150 mg/kg/day
  NEL: 75 mg/kg/day
  NOAEL: 75 mg/kg/day

## CN(C)C(=O)Nc1ccc(Cl)c(Cl)c1 [Diuron]
[21]
  LEL: 640 mg/kg/day
  LOAEL: 640 mg/kg/day
  NEL: 50.8 mg/kg/day
  NOAEL: 50.8 mg/kg/day
[22]; [51]
  LEL: 0.3 mg/kg/day
  NEL: < 0.3 mg/kg/day
  NOAEL: 0.7 mg/kg/day
[22]; systemic / pathology microscopic / spleen / pigmentation
  LOAEL: 1.6 mg/kg/day
[23]
  LEL: 1 mg/kg/day
  LOAEL: 1 mg/kg/day
  NEL: < 1 mg/kg/day
  NOAEL: < 1 mg/kg/day
[24]; [52]
  LEL: 139 mg/kg/day
  LOAEL: 139 mg/kg/day
  NEL: 18.9 mg/kg/day
  NOAEL: 18.9 mg/kg/day
[24]; [53]
  LEL: 101 mg/kg/day
  LOAEL: 101 mg/kg/day
  NEL: 14.8 mg/kg/day
  NOAEL: 14.8 mg/kg/day

## CCn1nc(Cc2ccccc2)cc1C1CCN(C[C@H]2C[C@H](N(C)[C@@H](C(=O)O)C(C)C)C[C@@H]2c2cccc(F)c2)CC1 [MK-578]
[25]; [54]
  LOAEL: > 250 mg/kg/day
  NOAEL: ≥ 250 mg/kg/day
[25]; [55]
  LEL: 100 mg/kg/day
  NEL: < 100 mg/kg/day
[26]
  LEL: 500 mg/kg/day
  LOAEL: > 500 mg/kg/day
  NEL: < 500 mg/kg/day
  NOAEL: ≥ 500 mg/kg/day
[27]
  LEL: 250 mg/kg/day
  LOAEL: > 500 mg/kg/day
  NEL: < 250 mg/kg/day
  NOAEL: ≥ 500 mg/kg/day
[28]
  LEL: 100 mg/kg/day
  LOAEL: > 100 mg/kg/day
  NEL: 30 mg/kg/day
  NOAEL: ≥ 100 mg/kg/day
[29]
  LEL: 200 mg/kg/day
  LOAEL: > 200 mg/kg/day
  NEL: < 200 mg/kg/day
  NOAEL: ≥ 200 mg/kg/day
